± gives the standard deviation of the averaged measurements.
How the values were obtained:
Assay in all cases: level (log10 ratio to DMSO vehicle control); higher = higher biomarker level / cell amount than vehicle control
[1] = compound: C=C(C)C(=O)OCCC(F)(F)C(F)(F)C(F)(F)C(F)(F)C(F)(F)C(F)(F)F [6:2 Fluorotelomer methacrylate]; details: in DMSO
Procedure: (§1)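 BioMAP Diversity Plus panel of 12 human primary cell co-culture systems (3C, 4H, LPS, SAg, BT, BF4T, BE3C, CASM3C, HDF3CGF, KF3CT, MyoF, Mphg). Compounds were added 1 h before stimulation and left for 24 h (MyoF 48 h; BT 72 h for soluble read-outs or 6 d for IgG). Biomarkers were read by ELISA, cytotoxicity by SRB, PBMC viability and proliferation by Alamar Blue. Each well value was divided by the mean of 8 DMSO control wells on the same plate and log10 transformed; duplicate blinded samples were tested at 4 concentrations.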

[2] = compound: C=CC(=O)OCC(F)(F)C(F)(F)C(F)(F)COC(=O)C=C [1H,1H,5H,5H-Perfluoro-1,5-pentanediol diacrylate]; details: 6700 nM; in DMSO
Procedure: as §1

[3] = compound: COC(=O)C(F)(F)C(F)(F)OC(F)(C(F)(F)F)C(F)(F)OC(F)=C(F)F [Methyl perfluoro(3-(1-ethenyloxypropan-2-yloxy)propanoate)]; details: in DMSO
Procedure: as §1

[4] = compound: FC(F)(F)C(F)(F)C(F)(F)C(F)(F)C(F)(F)C(F)(F)C(F)(F)I [1-Iodopentadecafluoroheptane]; details: in DMSO
Procedure: as §1

[5] = compound: FC(F)(F)C(F)(F)C(F)(F)C(F)(F)C(F)(F)C(F)(F)CC1CO1 [3-(Perfluorohexyl)-1,2-epoxypropane]; details: in DMSO
Procedure: as §1

[6] = compound: FC(F)(F)C(F)(F)C(F)(F)CC1CO1 [1H,1H-Heptafluorobutyl epoxide]; details: in DMSO
Procedure: as §1

Heptafluorobutyl iodide = compound: FC(F)(F)C(F)(F)C(F)(F)CI [Heptafluorobutyl iodide]; details: in DMSO
Procedure: as §1

[7] = compound: FC(F)(F)C(F)(F)CNCC(F)(F)C(F)(F)F [Bis(1H,1H-perfluoropropyl)amine]; details: in DMSO
Procedure: as §1

Octafluoroadipamide = compound: NC(=O)C(F)(F)C(F)(F)C(F)(F)C(F)(F)C(N)=O [Octafluoroadipamide]; details: in DMSO
Procedure: as §1

Nonafluoropentanamide = compound: NC(=O)C(F)(F)C(F)(F)C(F)(F)C(F)(F)F [Nonafluoropentanamide]; details: in DMSO
Procedure: as §1

[8] = compound: NC(=O)C(F)(F)C(F)(F)C(F)(F)C(F)F; details: in DMSO
Procedure: as §1

[9] = compound: NS(=O)(=O)C(F)(F)C(F)(F)C(F)(F)C(F)(F)C(F)(F)C(F)(F)F [Perfluorohexanesulfonamide]; details: in DMSO
Procedure: as §1

[10] = compound: O=C(O)C(F)(F)C(F)(F)C(F)(F)C(F)(F)C(F)(F)C(F)(F)C(F)(F)C(F)(F)C(F)(F)C(F)F [11-H-Perfluoroundecanoic acid]; details: in DMSO
Procedure: as §1

[11] = compound: O=C(O)C=CC(F)(C(F)(F)F)C(F)(F)F [3-(Perfluoroisopropyl)-2-propenoic acid]; details: in DMSO
Procedure: as §1

[12] = compound: O=S(=O)(Cl)C(F)(F)C(F)(F)C(F)(F)C(F)(F)C(F)(F)C(F)(F)C(F)(F)C(F)(F)F [Perfluoro-1-octanesulfonyl chloride]; details: in DMSO
Procedure: as §1

[13] = compound: O=S(=O)(F)C(F)(F)C(F)(F)C(F)(F)C(F)(F)C(F)(F)C(F)(F)C(F)(F)C(F)(F)F [Perfluorooctanesulfonyl fluoride]; details: in DMSO
Procedure: as §1

[14] = compound: O=S(=O)(O)C(F)(F)C(F)(F)C(F)(F)C(F)(F)C(F)(F)C(F)(F)C(F)(F)C(F)(F)C(F)(F)C(F)(F)F [Sodium perfluorodecanesulfonate]; details: in DMSO
Procedure: as §1

[15] = compound: O=S(=O)(O)CCC(F)(F)C(F)(F)C(F)(F)C(F)(F)C(F)(F)C(F)(F)F [6:2 Fluorotelomer sulfonic acid]; details: in DMSO
Procedure: as §1

Hexafluoroamylene glycol = compound: OCC(F)(F)C(F)(F)C(F)(F)CO [Hexafluoroamylene glycol]; details: in DMSO
Procedure: as §1

LPS:SRB
level (log10) ([1]; 6700 nM): -0.003 ± 0.0042 | level (log10) ([1]; 20000 nM): -0.0035 ± 0.0064 | level (log10) ([1]; 60000 nM): -0.0025 ± 0.00071 | level (log10) [2]: -0.02 ± 0.0042 | level (log10) ([3]; 6700 nM): -0.012 | level (log10) ([3]; 20000 nM): -0.0085 ± 0.0078 | level (log10) ([4]; 6700 nM): 0.0035 ± 0.0064 | level (log10) ([4]; 20000 nM): 0.003 ± 0.0042 | level (log10) ([5]; 6700 nM): -0.0045 ± 0.0035 | level (log10) ([5]; 20000 nM): -0.003 | level (log10) ([5]; 60000 nM): -0.002 ± 0.0057 | level (log10) ([6]; 6700 nM): 0.0085 ± 0.013 | level (log10) ([6]; 20000 nM): 0.002 | level (log10) ([6]; 60000 nM): -0.005 ± 0.0071 | level (log10) (Heptafluorobutyl iodide; 6700 nM): -0.0035 ± 0.0021 | level (log10) (Heptafluorobutyl iodide; 20000 nM): -0.0095 ± 0.0021 | level (log10) (Heptafluorobutyl iodide; 60000 nM): 0.0045 ± 0.021 | level (log10) ([7]; 6700 nM): -0.008 ± 0.0042 | level (log10) ([7]; 20000 nM): 0.001 ± 0.016 | level (log10) ([7]; 60000 nM): -0.0015 ± 0.0021 | level (log10) (Octafluoroadipamide; 6700 nM): -0.003 ± 0.011 | level (log10) (Octafluoroadipamide; 20000 nM): -0.0075 ± 0.0092 | level (log10) (Octafluoroadipamide; 60000 nM): 0.0015 ± 0.0035 | level (log10) (Nonafluoropentanamide; 6700 nM): 0.0015 ± 0.011 | level (log10) (Nonafluoropentanamide; 20000 nM): -0.0065 ± 0.005 | level (log10) (Nonafluoropentanamide; 60000 nM): -0.003 ± 0.0042 | level (log10) ([8]; 6700 nM): -0.011 ± 0.0071 | level (log10) ([8]; 20000 nM): -0.006 ± 0.0042 | level (log10) ([8]; 60000 nM): -0.0105 ± 0.00071 | level (log10) ([9]; 6700 nM): -0.012 ± 0.0071 | level (log10) ([9]; 20000 nM): -0.017 ± 0.0057 | level (log10) ([9]; 60000 nM): -0.0975 ± 0.029 | level (log10) ([10]; 6700 nM): 0.0045 ± 0.013 | level (log10) ([10]; 20000 nM): 0.0055 ± 0.005 | level (log10) ([11]; 6700 nM): -0.0015 ± 0.018 | level (log10) ([11]; 20000 nM): -0.011 ± 0.016 | level (log10) ([11]; 60000 nM): -0.0115 ± 0.028 | level (log10) ([12]; 6700 nM): 0.0035 ± 0.0035 | level (log10) ([12]; 20000 nM): 0.005 ± 0.0028 | level (log10) ([12]; 60000 nM): -0.043 ± 0.023 | level (log10) ([13]; 6700 nM): -0.008 ± 0.0071 | level (log10) ([13]; 20000 nM): -0.0025 ± 0.0064 | level (log10) ([13]; 60000 nM): -0.002 ± 0.013 | level (log10) ([14]; 1500 nM): 0.0025 ± 0.0021 | level (log10) ([14]; 4400 nM): -0.001 ± 0.0057 | level (log10) ([14]; 13000 nM): -0.0105 ± 0.00071 | level (log10) ([14]; 40000 nM): -0.02 ± 0.017 | level (log10) ([15]; 6700 nM): -0.0055 ± 0.00071 | level (log10) ([15]; 20000 nM): -0.0005 ± 0.0064 | level (log10) ([15]; 60000 nM): -0.001 ± 0.023 | level (log10) (Hexafluoroamylene glycol; 6700 nM): -0.004 ± 0.0028 | level (log10) (Hexafluoroamylene glycol; 20000 nM): -0.0095 ± 0.015 | level (log10) (Hexafluoroamylene glycol; 60000 nM): 0.002 ± 0.018

MyoF:Collagen IV
level (log10) ([1]; 6700 nM): -0.075 ± 0.11 | level (log10) ([1]; 20000 nM): -0.0395 ± 0.076 | level (log10) ([1]; 60000 nM): -0.02 ± 0.1 | level (log10) [2]: 0.03 ± 0.047 | level (log10) ([3]; 6700 nM): -0.0215 ± 0.04 | level (log10) ([3]; 20000 nM): -0.0235 ± 0.028 | level (log10) ([4]; 6700 nM): 0.0705 ± 0.049 | level (log10) ([4]; 20000 nM): 0.279 ± 0.09 | level (log10) ([5]; 6700 nM): 0.002 ± 0.025 | level (log10) ([5]; 20000 nM): 0.0185 ± 0.0021 | level (log10) ([5]; 60000 nM): 0.0425 ± 0.053 | level (log10) ([6]; 6700 nM): -0.0125 ± 0.015 | level (log10) ([6]; 20000 nM): 0 ± 0.0099 | level (log10) ([6]; 60000 nM): 0.001 ± 0.035 | level (log10) (Heptafluorobutyl iodide; 6700 nM): -0.021 ± 0.0071 | level (log10) (Heptafluorobutyl iodide; 20000 nM): -0.0325 ± 0.016 | level (log10) (Heptafluorobutyl iodide; 60000 nM): -0.0185 ± 0.039 | level (log10) ([7]; 6700 nM): -0.014 ± 0.03 | level (log10) ([7]; 20000 nM): -0.0275 ± 0.015 | level (log10) ([7]; 60000 nM): -0.008 ± 0.03 | level (log10) (Octafluoroadipamide; 6700 nM): -0.0165 ± 0.015 | level (log10) (Octafluoroadipamide; 20000 nM): -0.0065 ± 0.0064 | level (log10) (Octafluoroadipamide; 60000 nM): 0.003 ± 0.038 | level (log10) (Nonafluoropentanamide; 6700 nM): -0.051 ± 0.12 | level (log10) (Nonafluoropentanamide; 20000 nM): -0.0655 ± 0.054 | level (log10) (Nonafluoropentanamide; 60000 nM): -0.0655 ± 0.064 | level (log10) ([8]; 6700 nM): -0.0075 ± 0.0035 | level (log10) ([8]; 20000 nM): -0.007 ± 0.028 | level (log10) ([8]; 60000 nM): 0.014 ± 0.038 | level (log10) ([9]; 6700 nM): 0.0555 ± 0.023 | level (log10) ([9]; 20000 nM): 0.202 ± 0.025 | level (log10) ([9]; 60000 nM): 0.408 ± 0.016 | level (log10) ([10]; 6700 nM): 0.141 ± 0.0028 | level (log10) ([10]; 20000 nM): 0.293 ± 0.034 | level (log10) ([11]; 6700 nM): -0.01 ± 0.023 | level (log10) ([11]; 20000 nM): 0.0025 ± 0.0078 | level (log10) ([11]; 60000 nM): 0.0205 ± 0.022 | level (log10) ([12]; 6700 nM): 0.014 ± 0.011 | level (log10) ([12]; 20000 nM): 0.052 ± 0.023 | level (log10) ([12]; 60000 nM): 0.241 ± 0.037 | level (log10) ([13]; 6700 nM): 0.0015 ± 0.015 | level (log10) ([13]; 20000 nM): 0.023 ± 0.025 | level (log10) ([13]; 60000 nM): 0.0235 ± 0.018 | level (log10) ([14]; 1500 nM): 0.014 ± 0.02 | level (log10) ([14]; 4400 nM): 0.035 ± 0.0085 | level (log10) ([14]; 13000 nM): 0.0215 ± 0.0035 | level (log10) ([14]; 40000 nM): 0.0065 ± 0.033 | level (log10) ([15]; 6700 nM): -0.0185 ± 0.033 | level (log10) ([15]; 20000 nM): -0.006 ± 0.023 | level (log10) ([15]; 60000 nM): -0.002 ± 0.014 | level (log10) (Hexafluoroamylene glycol; 6700 nM): -0.0165 ± 0.042 | level (log10) (Hexafluoroamylene glycol; 20000 nM): -0.0015 ± 0.026 | level (log10) (Hexafluoroamylene glycol; 60000 nM): -0.0035 ± 0.00071

Reference: the supplement of paper PMC10331698
